Assay results: patent US7452887B2, “Quinoline- and isoquinoline-based compounds exhibiting ATP-utilizing enzyme inhibitory activity, and compositions, and uses thereof” (Amphora Discovery Corporation, priority 2004, dated 2008)

Each compound was assayed against MAPKAPK2 (Homo sapiens, UniProt P49137) (assay: HTS ATP-utilizing enzyme assay, off-chip mobility-shift (Caliper HTS 250)). Conditions: test compound 10 μM, kinase listed = active (greater than six-sigma from the mean activity of inactive compounds).
MAPKAPK2, sequence (P49137 whole entry): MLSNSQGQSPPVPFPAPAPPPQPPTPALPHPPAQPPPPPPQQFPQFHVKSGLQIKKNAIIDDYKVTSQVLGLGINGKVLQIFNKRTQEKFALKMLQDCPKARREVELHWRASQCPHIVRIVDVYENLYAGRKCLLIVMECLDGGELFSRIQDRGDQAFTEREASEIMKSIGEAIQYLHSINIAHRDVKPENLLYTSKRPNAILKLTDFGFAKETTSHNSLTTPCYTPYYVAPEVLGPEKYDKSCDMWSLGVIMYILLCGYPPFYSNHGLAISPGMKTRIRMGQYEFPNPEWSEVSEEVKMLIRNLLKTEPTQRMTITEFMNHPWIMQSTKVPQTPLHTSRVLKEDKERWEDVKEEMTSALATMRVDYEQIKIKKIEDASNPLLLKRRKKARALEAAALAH
Type: biochemical
Excerpt: The following procedures describe the reagent and plate preparation for a HTS of an ATP-utilizing enzyme, such as a protein kinase, run in an off-chip mobility-shift assay format. The following provides an HTS protocol for running a protein kinase HTS screen on a Caliper HTS 250 microfluidics system. The following parameters are dependent on the protein kinase used and can be determined by one skilled in the art as part of a typical assay development process. For example, the peptide substrate used can be identified from the current literature, by screening a peptide library of potential protein kinase substrates, or by other applicable means accepted in the field.
The following table provides typical screen assay parameters appropriate for a Caliper HTS 250 microfluidics system.
The reagents and buffers listed in the following table are generally applicable for developing and running an HTS screen on a human protein kinase using the Caliper HTS 250 system.
The following reagents were prepared using the previously described buffers.
A 2× Master Buffer solution was prepared by combining 200 mL of 1 M HEPES, pH 7.5, 2 mL of 10% Triton X-100, 20 mL of 10% BSA, and 778 mL of H2O.
A TCB Buffer solution was prepared by combining 125 mL of 2× Master Buffer, 10 mL of 0.5 M EDTA, 6.25 mL of 4% coating reagent, 1.01 mL of 100% DMSO, and 107.74 mL H2O.
Assays to determine the kinase inhibitory activity of compounds of the present disclosure were performed using a Caliper HTS 250 microfluidics device, Greiner U-bottom assay plates, a Multidrop for transfer of reagents, and Biomek FX (AMNCBM03) software. Initially, 2.4 μL of a 1 mM solution of a test compound in 100% DMSO was added to a well of the Greiner U-bottom plate. A single Greiner U-bottom plate having 24×16 wells could include multiple test compounds. […] Using the Biomek FX, 10 μL of 0.5 M EDTA was added by the span-8 to wells, indicated as 100% Control and 2.4 μL of 100% DMSO was added by the span-8 to wells, indicated as 0% Control. […] The total reaction volume in each well was 25 μL, and the concentration of the test compound was 10 μM. The assay plate was incubated for 2.5 hrs at 20° C. to 22° C. […] The inhibition of the ATP-utilizing enzyme, such as a particular protein kinase, was determined by measuring the ratio of the peptide substrate to phosphorylated product for each well of the assay plate using the Caliper HTS 250 system.
The use of six-sigma statistical limits represents a conservative method for declaring potential hits among targets. The six-sigma activity, as well as the mean population activity, can be different for each target enzyme.

Row | SMILES | Activity
1 | CN(Cc1ccccc1)C1CCN(c2ccc(Nc3ccnc4ccc(-c5ccc(C#N)cc5)cc34)cc2)C1 (centres unmarked) [4-(4-(4-(3-(benzyl(methyl)amino)pyrrolidin-1-yl)phenylamino)quinolin-6-yl)benzonitrile] | MAPKAPK2
2 | CN(C)C1CCN(c2ccc(Nc3ccnc4ccc(-c5ccc6ccccc6c5)cc34)cc2)C1 (centres unmarked) [N-(4-(3-(dimethylamino)pyrrolidin-1-yl)phenyl)-6-(naphthalen-2-yl)quinolin-4-amine] | MAPKAPK2
3 | CN(C)[C@H]1CCN(c2ccc(Nc3ccnc4ccc(-c5ccc6ccccc6c5)cc34)cc2)C1 [(S)-N-(4-(3-(dimethylamino)pyrrolidin-1-yl)phenyl)-6-(naphthalen-2-yl)quinolin-4-amine] | MAPKAPK2
4 | Cc1ccc(-c2ccc3nccc(Nc4ccc(N5CCC(N(C)C)C5)cc4)c3c2)cc1Cl (centres unmarked) [6-(3-chloro-4-methylphenyl)-N-(4-(3-(dimethylamino)pyrrolidin-1-yl)phenyl)quinolin-4-amine] | MAPKAPK2
5 | c1ccc(-c2ccc3nccc(Nc4ccc(N5CCN(C6CCCCC6)CC5)cc4)c3c2)cc1 [N-(4-(4-cyclohexylpiperazin-1-yl)phenyl)-6-phenylquinolin-4-amine] | MAPKAPK2
6 | CN(C)[C@@H]1CCN(c2ccc(Nc3ccnc4ccc(-c5ccc6ccccc6c5)cc34)cc2)C1 [(R)-N-(4-(3-(dimethylamino)pyrrolidin-1-yl)phenyl)-6-(naphthalen-2-yl)quinolin-4-amine] | MAPKAPK2
7 | CN(C)C1CCN(c2ccc(Nc3ccnc4ccc(-c5cccc(OCc6ccccc6)c5)cc34)cc2)C1 (centres unmarked) [6-(3-(benzyloxy)phenyl)-N-(4-(3-(dimethylamino)pyrrolidin-1-yl)phenyl)quinolin-4-amine] | MAPKAPK2
8 | CN(C)C(=O)CN1CCN(c2ccc(Nc3ccnc4ccc(-c5ccc(C#N)cc5)cc34)cc2)CC1 [2-(4-(4-(6-(4-cyanophenyl)quinolin-4-ylamino)phenyl)piperazin-1-yl)-N,N-dimethylacetamide] | MAPKAPK2
9 | CN(C)C1CCN(c2ccc(Nc3ccnc4ccc(-c5ccc6c(c5)OCO6)cc34)cc2)C1 (centres unmarked) [6-(benzo[d][1,3]dioxol-5-yl)-N-(4-(3-(dimethylamino)pyrrolidin-1-yl)phenyl)quinolin-4-amine] | MAPKAPK2
10 | CN(C)C1CCN(c2ccc(Nc3ccnc4ccc(-c5cccc6[nH]ccc56)cc34)cc2)C1 (centres unmarked) [N-(4-(3-(dimethylamino)pyrrolidin-1-yl)phenyl)-6-(1H-indol-4-yl)quinolin-4-amine] | MAPKAPK2
11 | CN1CCN(c2ccc(Nc3ccnc4ccc(-c5cc(C(F)(F)F)cc(C(F)(F)F)c5)cc34)cc2)CC1 [6-(3,5-bis(trifluoromethyl)phenyl)-N-(4-(4-methylpiperazin-1-yl)phenyl)quinolin-4-amine] | MAPKAPK2
12 | CC(C)c1ccc(-c2ccc3nccc(Nc4ccc(N5CCC(N(C)C)C5)cc4)c3c2)cc1 (centres unmarked) [N-(4-(3-(dimethylamino)pyrrolidin-1-yl)phenyl)-6-(4-isopropylphenyl)quinolin-4-amine] | MAPKAPK2
13 | CN1CCN(c2ccc(Nc3ccnc4ccc(-c5ccc(Cl)cc5)cc34)cn2)CC1 [6-(4-chlorophenyl)-N-(6-(4-methylpiperazin-1-yl)pyridin-3-yl)quinolin-4-amine] | MAPKAPK2
14 | CN(C)[C@H]1CCN(c2ccc(Nc3ccnc4ccc(-c5ccc(Cl)cc5)cc34)cc2)C1 [(S)-6-(4-chlorophenyl)-N-(4-(3-(dimethylamino)pyrrolidin-1-yl)phenyl)quinolin-4-amine] | MAPKAPK2
15 | Cc1ccc(-c2ccc3nccc(Nc4ccc(N5CCC(N(C)C)C5)cc4)c3c2)cc1F (centres unmarked) [N-(4-(3-(dimethylamino)pyrrolidin-1-yl)phenyl)-6-(3-fluoro-4-methylphenyl)quinolin-4-amine] | MAPKAPK2
16 | CN(C)[C@H]1CCN(c2ccc(Nc3ccnc4ccc(-c5ccc(C#N)cc5)cc34)cc2)C1 [(S)-4-(4-(4-(3-(dimethylamino)pyrrolidin-1-yl)phenylamino)quinolin-6-yl)benzonitrile] | MAPKAPK2
17 | CN(C)C1CCN(c2ccc(Nc3ccnc4ccc(-c5ccc(C#N)c(F)c5)cc34)cc2)C1 (centres unmarked) [4-(4-(4-(3-(dimethylamino)pyrrolidin-1-yl)phenylamino)quinolin-6-yl)-2-fluorobenzonitrile] | MAPKAPK2
18 | CN(C)C1CCN(c2ccc(Nc3ccnc4ccc(-c5ccc6c(c5)CCC6=O)cc34)cc2)C1 (centres unmarked) [5-(4-(4-(3-(dimethylamino)pyrrolidin-1-yl)phenylamino)quinolin-6-yl)-2,3-dihydroinden-1-one] | MAPKAPK2
19 | CN(C)C1CCN(c2ccc(Nc3ccnc4ccc(-c5ccc(Cl)c(F)c5)cc34)cc2)C1 (centres unmarked) [6-(4-chloro-3-fluorophenyl)-N-(4-(3-(dimethylamino)pyrrolidin-1-yl)phenyl)quinolin-4-amine] | MAPKAPK2
20 | CCC(CC)N1CCN(c2ccc(Nc3ccnc4ccc(-c5ccc(C#N)cc5)cc34)cc2)CC1 [4-(4-(4-(4-(pentan-3-yl)piperazin-1-yl)phenylamino)quinolin-6-yl)benzonitrile] | MAPKAPK2
21 | CCCCN1CCN(c2ccc(Nc3ccnc4ccc(-c5ccccc5)cc34)cc2)CC1 [N-(4-(4-butylpiperazin-1-yl)phenyl)-6-phenylquinolin-4-amine] | MAPKAPK2
22 | CCCCN1CCN(c2ccc(Nc3ccnc4ccc(-c5ccc(C#N)cc5)cc34)cc2)CC1 [4-(4-(4-(4-butylpiperazin-1-yl)phenylamino)quinolin-6-yl)benzonitrile] | MAPKAPK2
23 | CN1CCC(c2ccc(Nc3ccnc4ccc(-c5ccc(C#N)cc5)cc34)cc2)CC1 [4-(4-(4-(1-methylpiperidin-4-yl)phenylamino)quinolin-6-yl)benzonitrile] | MAPKAPK2
24 | Cc1cccc(-c2ccc3nccc(Nc4ccc(N5CCC(N(C)C)C5)cc4)c3c2)c1 (centres unmarked) [N-(4-(3-(dimethylamino)pyrrolidin-1-yl)phenyl)-6-m-tolylquinolin-4-amine] | MAPKAPK2
25 | COc1ccc(-c2ccc3nccc(Nc4ccc(N5CCN(C6CCCCC6)CC5)cc4)c3c2)cc1 [N-(4-(4-cyclohexylpiperazin-1-yl)phenyl)-6-(4-methoxyphenyl)quinolin-4-amine] | MAPKAPK2
26 | CN(C)C1CCN(c2ccc(Nc3ccnc4ccc(-c5ccc6cc[nH]c6c5)cc34)cc2)C1 (centres unmarked) [N-(4-(3-(dimethylamino)pyrrolidin-1-yl)phenyl)-6-(1H-indol-6-yl)quinolin-4-amine] | MAPKAPK2
27 | C=CCN1CCN(c2ccc(Nc3ccnc4ccc(-c5ccc(C#N)cc5)cc34)cc2)CC1 [4-(4-(4-(4-allylpiperazin-1-yl)phenylamino)quinolin-6-yl)benzonitrile] | MAPKAPK2
28 | COc1ccc(-c2ccc3nccc(Nc4ccc(N5CCC(N(C)C)C5)cc4)c3c2)cc1F (centres unmarked) [N-(4-(3-(dimethylamino)pyrrolidin-1-yl)phenyl)-6-(3-fluoro-4-methoxyphenyl)quinolin-4-amine] | MAPKAPK2
29 | C=Cc1ccc(-c2ccc3nccc(Nc4ccc(N5CCC(N(C)C)C5)cc4)c3c2)cc1 (centres unmarked) [N-(4-(3-(dimethylamino)pyrrolidin-1-yl)phenyl)-6-(4-vinylphenyl)quinolin-4-amine] | MAPKAPK2
